According to ChEMBL document CHEMBL3046234, “Synthesis and pharmacological evaluation of some new naphthol derived aryloxy derivatives as cognition enhancers” (2012):

What was measured:
Mus musculus [1] = assay: Antiamnesic activity in Mus musculus (mouse) assessed as retention of memory at 1 mg/kg, ip measured after 24 hr by elevated plus maze test; type: functional; details: route intraperitoneal
Mus musculus [2] = assay: Antiamnesic activity in Mus musculus (mouse) assessed as retention of memory at 3 mg/kg, ip measured after 24 hr by elevated plus maze test; type: functional; details: route intraperitoneal
[3] = target: T1, Acetylcholinesterase (Mus musculus) (UniProt P21836); assay: Inhibition of AChE in Mus musculus (mouse) brain homogenate assessed as residual activity measuring acetylthiocholine iodide hydrolysis per mg protein at 10 uM after 5 min by Ellman method; type: tissue-based
T1 sequence (whole entry): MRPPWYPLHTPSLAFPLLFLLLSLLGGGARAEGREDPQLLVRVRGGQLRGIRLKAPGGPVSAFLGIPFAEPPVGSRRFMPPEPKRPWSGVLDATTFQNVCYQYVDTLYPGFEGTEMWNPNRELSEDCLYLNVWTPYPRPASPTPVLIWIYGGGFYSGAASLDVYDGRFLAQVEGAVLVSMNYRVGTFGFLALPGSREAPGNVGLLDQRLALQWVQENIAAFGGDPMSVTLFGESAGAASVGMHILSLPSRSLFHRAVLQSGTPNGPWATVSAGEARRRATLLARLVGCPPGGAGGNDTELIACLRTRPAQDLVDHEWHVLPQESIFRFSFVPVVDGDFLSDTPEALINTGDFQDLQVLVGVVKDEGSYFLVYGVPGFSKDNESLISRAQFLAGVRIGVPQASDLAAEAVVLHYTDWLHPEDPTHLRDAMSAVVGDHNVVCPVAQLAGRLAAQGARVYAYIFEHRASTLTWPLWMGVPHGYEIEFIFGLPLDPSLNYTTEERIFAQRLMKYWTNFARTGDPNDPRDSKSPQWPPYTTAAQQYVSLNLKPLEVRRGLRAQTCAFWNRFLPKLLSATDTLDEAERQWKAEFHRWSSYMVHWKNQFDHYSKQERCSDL

[4] = target: T1, Acetylcholinesterase (Mus musculus); assay: Inhibition of AChE in Mus musculus (mouse) brain homogenate at 10 uM after 5 min by Ellman method relative to control; type: tissue-based

For `O=C(COc1cccc2ccccc12)N1CCCC1`, the Activity (Mus musculus [1]) was 51.59%, the Activity (Mus musculus [2]) was 68.44% and the Activity [3] was 29.7 nmol/min. The Imax [4] was 73.9%.
In the case of `O=C(COc1cccc2ccccc12)N1CCOCC1`, the Activity (Mus musculus [1]) is reported as 62.69%, the Activity (Mus musculus [2]) is reported as 81.65% and the Activity [3] is reported as 25.8 nmol/min. The Imax [4] was 77.4%.
For `Nc1cccc2c(OCC(=O)N3CCCC3)cccc12`, the Activity (Mus musculus [1]) was 69.11%, the Activity (Mus musculus [2]) was 74.47% and the Activity [3] was 78.5 nmol/min. The Imax [4] was 31.1%.
`O=C(COc1cccc2ccccc12)N1CCCCC1` gave an Activity (Mus musculus [1]) of 63%, an Activity (Mus musculus [2]) of 72.94% and an Activity [3] of 83.5 nmol/min. The Imax [4] was 26.8%.
With `CC(C)C(=O)Nc1cccc2c(OCCN3CCOCC3)cccc12` the Activity (Mus musculus [1]) was 22.23%, the Activity (Mus musculus [2]) was 25.43% and the Activity [3] was 59 nmol/min. The Imax [4] was 22.3%.
`CCN(CC)CCOc1cccc2c(NC(=O)C(C)C)cccc12` was tested, and the Activity (Mus musculus [1]) was 19.28%, the Activity (Mus musculus [2]) was 28.1% and the Activity [3] was 56 nmol/min. It also gave an Imax [4] of 26.3%.
For `CN(C)C(=O)COc1cccc2ccccc12`, the Activity (Mus musculus [1]) was 52.92%, the Activity (Mus musculus [2]) was 77.78% and the Activity [3] was 76.2 nmol/min. For the same molecule, the Imax [4] was 33.1%.
Molecule `Nc1cccc2c(OCC(=O)N3CCOCC3)cccc12` has an Activity (Mus musculus [1]) of 43.26%, an Activity (Mus musculus [2]) of 75.35% and an Activity [3] of 55.9 nmol/min. For the same molecule, the Imax [4] was 51%.
`CN1CCN(C(=O)COc2cccc3ccccc23)CC1` was tested, and the Activity (Mus musculus [1]) was 73.76%, the Activity (Mus musculus [2]) was 86.18% and the Activity [3] was 15.4 nmol/min. The Imax [4] was 86.5%.
With `NC(=O)CN1CCCC1=O` [PIRACETAM] the Activity (Mus musculus [1]) was 32.47% and the Activity (Mus musculus [2]) was 46.88%.
